Data as given in PubChem BioAssay (NCI).
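At the GI50, growth is halved. TGI: total growth inhibition.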

Legend:
Test in all cases: NCI-60 cell line screen, 384-well format
A498 renal = tested on: A498 renal
COLO 205 colon = tested on: COLO 205 colon
SW-620 colon = tested on: SW-620 colon
786-0 renal = tested on: 786-0 renal
CAKI-1 renal = tested on: CAKI-1 renal
MCF7 breast = tested on: MCF7 breast
HCC-2998 colon = tested on: HCC-2998 colon
A549 NSCLC = tested on: A549 NSCLC
M14 melanoma = tested on: M14 melanoma
HCT-116 colon = tested on: HCT-116 colon
NCI-H460 NSCLC = tested on: NCI-H460 NSCLC
SK-MEL-28 melanoma = tested on: SK-MEL-28 melanoma
OVCAR-4 ovarian = tested on: OVCAR-4 ovarian
HCT-15 colon = tested on: HCT-15 colon
MDA-MB-468 breast = tested on: MDA-MB-468 breast
NCI-H322M lung = tested on: NCI-H322M lung
ACHN renal = tested on: ACHN renal
UACC-62 melanoma = tested on: UACC-62 melanoma
SK-OV-3 ovarian = tested on: SK-OV-3 ovarian
PC-3 prostate = tested on: PC-3 prostate
UO-31 renal = tested on: UO-31 renal
OVCAR-3 ovarian = tested on: OVCAR-3 ovarian
KM12 colon = tested on: KM12 colon
MOLT-4 leukemia = tested on: MOLT-4 leukemia
HL-60(TB) leukemia = tested on: HL-60(TB) leukemia
TK-10 renal = tested on: TK-10 renal
SF-268 CNS = tested on: SF-268 CNS
RPMI-8226 leukemia = tested on: RPMI-8226 leukemia
IGROV1 ovarian = tested on: IGROV1 ovarian
BT-549 breast = tested on: BT-549 breast
MDA-MB-231 breast = tested on: MDA-MB-231 breast
U251 glioblastoma = tested on: U251 glioblastoma
T-47D breast = tested on: T-47D breast
NCI-H522 lung = tested on: NCI-H522 lung
LOX IMVI melanoma = tested on: LOX IMVI melanoma
SNB-19 CNS = tested on: SNB-19 CNS
OVCAR-5 ovarian = tested on: OVCAR-5 ovarian
HT29 colon = tested on: HT29 colon
NCI-H23 lung = tested on: NCI-H23 lung
MDA-MB-435 melanoma = tested on: MDA-MB-435 melanoma
NCI-H226 lung = tested on: NCI-H226 lung
DU-145 prostate = tested on: DU-145 prostate
HOP-62 NSCLC = tested on: HOP-62 NSCLC
SF-539 CNS = tested on: SF-539 CNS
MALME-3M melanoma = tested on: MALME-3M melanoma
SNB-75 CNS = tested on: SNB-75 CNS
NCI/ADR-RES ovarian = tested on: NCI/ADR-RES ovarian
CCRF-CEM leukemia = tested on: CCRF-CEM leukemia
EKVX NSCLC = tested on: EKVX NSCLC
HS 578T breast = tested on: HS 578T breast
SN12C renal = tested on: SN12C renal
SF-295 CNS = tested on: SF-295 CNS
K-562 leukemia = tested on: K-562 leukemia
SK-MEL-5 melanoma = tested on: SK-MEL-5 melanoma

Cc1ccc(C(=O)N(CCCN)C(c2oc3cc(Cl)ccc3c(=O)c2Cc2ccccc2)C(C)C)cc1 (stereo not drawn) gave a GI50 (A498 renal) of 29 nM, a TGI (A498 renal) of 2010 nM and a GI50 (COLO 205 colon) of less than 10 nM. For the same compound, the TGI (COLO 205 colon) was less than 10 nM, the GI50 (SW-620 colon) was less than 10 nM and the TGI (SW-620 colon) was 275 nM. The GI50 ([…]-0 renal) was less than 10 nM, the TGI (786-0 renal) was 1390 nM and the GI50 (CAKI-1 renal) was less than 10 nM. It also gave a TGI (CAKI-1 renal) of 1950 nM, a GI50 (MCF7 breast) of less than 10 nM and a TGI (MCF7 breast) of 1370 nM. For the same compound, the GI50 (HCC-2998 colon) was less than 10 nM, the TGI (HCC-2998 colon) was 542 nM and the GI50 (A549 NSCLC) was less than 10 nM. The TGI (A549 NSCLC) was 1590 nM, the GI50 (M14 melanoma) was less than 10 nM and the TGI (M14 melanoma) was less than 10 nM. For the same compound, the GI50 (HCT-116 colon) was less than 10 nM, the TGI (HCT-116 colon) was 1210 nM and the GI50 (NCI-H460 NSCLC) was less than 10 nM. For the same compound, the TGI (NCI-H460 NSCLC) was less than 10 nM, the GI50 (SK-MEL-28 melanoma) was 1310 nM and the TGI (SK-MEL-28 melanoma) was 2600 nM. For the same compound, the GI50 (OVCAR-4 ovarian) was 1270 nM, the TGI (OVCAR-4 ovarian) was 2560 nM and the GI50 (HCT-15 colon) was less than 10 nM. The TGI (HCT-15 colon) was 1230 nM, the GI50 (MDA-MB-468 breast) was less than 10 nM and the TGI (MDA-MB-468 breast) was less than 10 nM. For the same compound, the GI50 (NCI-H322M lung) was less than 10 nM, the TGI (NCI-H322M lung) was 2030 nM and the GI50 (ACHN renal) was 1160 nM. For the same compound, the TGI (ACHN renal) was 2420 nM, the GI50 (UACC-62 melanoma) was less than 10 nM and the TGI (UACC-62 melanoma) was 1290 nM. For the same compound, the GI50 (SK-OV-3 ovarian) was less than 10 nM, the TGI (SK-OV-3 ovarian) was 1780 nM and the GI50 (PC-3 prostate) was less than 10 nM. The TGI (PC-3 prostate) was 1550 nM, the GI50 (UO-31 renal) was 1110 nM and the TGI (UO-31 renal) was 2340 nM. For the same compound, the GI50 (OVCAR-3 ovarian) was less than 10 nM, the TGI (OVCAR-3 ovarian) was less than 10 nM and the GI50 (KM12 colon) was less than 10 nM. It also gave a TGI (KM12 colon) of 1180 nM, a GI50 (MOLT-4 leukemia) of less than 10 nM and a TGI (MOLT-4 leukemia) of less than 10 nM. It also gave a GI50 (HL-60(TB) leukemia) of less than 10 nM, a TGI (HL-60(TB) leukemia) of less than 10 nM and a GI50 (TK-10 renal) of 1540 nM. It also gave a TGI (TK-10 renal) of 2900 nM, a GI50 (SF-268 CNS) of less than 10 nM and a TGI (SF-268 CNS) of less than 10 nM. For the same compound, the GI50 (RPMI-8226 leukemia) was less than 10 nM, the TGI (RPMI-8226 leukemia) was less than 10 nM and the GI50 (IGROV1 ovarian) was 511 nM. For the same compound, the TGI (IGROV1 ovarian) was 2140 nM, the GI50 (BT-549 breast) was less than 10 nM and the TGI (BT-549 breast) was 1360 nM. The GI50 (MDA-MB-231 breast) was less than 10 nM, the TGI (MDA-MB-231 breast) was 1840 nM and the GI50 (U251 glioblastoma) was less than 10 nM. The TGI (U251 glioblastoma) was 1460 nM, the GI50 (T-47D breast) was less than 10 nM and the TGI (T-47D breast) was less than 10 nM. The GI50 (NCI-H522 lung) was less than 10 nM, the TGI (NCI-H522 lung) was less than 10 nM and the GI50 (LOX IMVI melanoma) was less than 10 nM. It also gave a TGI (LOX IMVI melanoma) of 1810 nM, a GI50 (SNB-19 CNS) of less than 10 nM and a TGI (SNB-19 CNS) of 1460 nM. For the same compound, the GI50 (OVCAR-5 ovarian) was less than 10 nM, the TGI (OVCAR-5 ovarian) was 1570 nM and the GI50 (HT29 colon) was less than 10 nM. For the same compound, the TGI (HT29 colon) was less than 10 nM, the GI50 (NCI-H23 lung) was less than 10 nM and the TGI (NCI-H23 lung) was less than 10 nM. It also gave a GI50 (MDA-MB-435 melanoma) of less than 10 nM, a TGI (MDA-MB-435 melanoma) of less than 10 nM and a GI50 (NCI-H226 lung) of 1500 nM. It also gave a TGI (NCI-H226 lung) of 2840 nM, a GI50 (DU-145 prostate) of less than 10 nM and a TGI (DU-145 prostate) of 1100 nM. For the same compound, the GI50 (HOP-62 NSCLC) was less than 10 nM, the TGI (HOP-62 NSCLC) was 1760 nM and the GI50 (SF-539 CNS) was less than 10 nM. For the same compound, the TGI (SF-539 CNS) was 1260 nM, the GI50 (MALME-3M melanoma) was less than 10 nM and the TGI (MALME-3M melanoma) was 1740 nM. For the same compound, the GI50 (SNB-75 CNS) was less than 10 nM, the TGI (SNB-75 CNS) was 1810 nM and the GI50 (NCI/ADR-RES ovarian) was 129 nM. It also gave a TGI (NCI/ADR-RES ovarian) of 286 nM, a GI50 (CCRF-CEM leukemia) of less than 10 nM and a TGI (CCRF-CEM leukemia) of less than 10 nM. For the same compound, the GI50 (EKVX NSCLC) was less than 10 nM, the TGI (EKVX NSCLC) was 1920 nM and the GI50 (HS 578T breast) was less than 10 nM. For the same compound, the TGI (HS 578T breast) was less than 10 nM, the GI50 (SN12C renal) was less than 10 nM and the TGI (SN12C renal) was 1880 nM. It also gave a GI50 (SF-295 CNS) of less than 10 nM, a TGI (SF-295 CNS) of 1510 nM and a GI50 (K-562 leukemia) of less than 10 nM. For the same compound, the TGI (K-562 leukemia) was less than 10 nM, the GI50 (SK-MEL-5 melanoma) was less than 10 nM and the TGI (SK-MEL-5 melanoma) was less than 10 nM.
